In patent publication US9200005B2, “Inhibitor compounds of phosphodiesterase type 10A” (AbbVie Deutschland GmbH & Co. KG, priority 2013, dated 2015):
Counter-ions that a name gives are not always drawn.

Assays:
[1] = molecular target: PDE10A (UniProt Q9Y233); experiment: Measurement of PDE activity (HTRF cAMP kit, recombinant PDE10A); type: biochemical, human, rat and mouse; settings: substrate 20 nM, 60 minutes at 29° C.
Experimental: a) Measurement of PDE Activity
The recombinant PDE proteins are used in in vitro enzymatic reaction for measurement of PDE activity. These recombinant proteins, including PDE10A (human, rat and mouse PDE10) and isoforms of PDEs 1, 3, 4, and 5, were purchased from commercial vendor BPS Bioscience. The enzymatic activity of PDEs was determined by cAMP measurement kit from CisBio (IBA) using HTRF technology.
The PDE enzymatic reaction was carried out in assay buffer (20 mM Tris-HCl pH 7.5, 10 mM MgCl2, 0.1% bovine serum albumin) containing enzyme and substrate. […] The substrate cyclic nucleotide (cAMP or cGMP) concentration used in the assay was 20 nM for PDE10, and 100 nM for other PDEs. The inhibitory effect of compound was determined by incubating various concentration of inhibitor in the enzymatic assay. […] Next, the compound at varying concentration was mixed with PDE enzyme. The reaction was initiated by addition of cyclic nucleotide substrate, and incubated for 60 minutes at 29° C. The reaction was stopped by addition of lysis buffer from the assay kit. The cAMP-d2 and anti-cAMP cryptate in the lysis buffer detected the level of cAMP left from the PDE hydrolysis reaction. […] Thus, IC50 value of inhibitor can be obtained by plotting inhibitor concentration against PDE activity at that concentration.

[2] = Determination of the microsomal half-life / microsomal clearance, human liver microsomes; type: in vitro ADME; settings: 0.5 μM test substance, 0.25 mg of microsomal protein/mL, NADPH, 37° C.
Experimental: (§1) b) Determination of the Microsomal Half-Life:
(§2) The metabolic stability of the compounds of the invention was determined in the following assay.
(§3) The test substances were incubated in a concentration of 0.5 μM as follows:
(§4) 0.5 μM test substance are preincubated together with liver microsomes from different species (from rat, human or other species) (0.25 mg of microsomal protein/mL) in 0.05 M potassium phosphate buffer of pH 7.4 in microtiter plates at 37° C. for 5 min. The reaction is started by adding NADPH (1 mg/mL). After 0, 5, 10, 15, 20 and 30 min, 50 μl aliquots are removed, and the reaction is immediately stopped and cooled with the same volume of acetonitrile. The samples are frozen until analyzed. The remaining concentration of undegraded test substance is determined by MSMS. The half-life (T½) is determined from the gradient of the signal of test substance/unit time plot, it being possible to calculate the half-life of the test substance, assuming first order kinetics, from the decrease in the concentration of the compound with time. The microsomal clearance (mCl) is calculated from mCl=ln 2/T½/(content of microsomal protein in mg/mL)×1000 [mL/min/mg] (modified from references: Di, The Society for Biomoleculur Screening, 2003, 453-462; Obach, DMD, 1999 vol 27. N 11, 1350-1359).

[3] = Determination of the microsomal half-life / microsomal clearance, rat liver microsomes; type: in vitro ADME; settings: 0.5 μM test substance, 0.25 mg of microsomal protein/mL, NADPH, 37° C.
Experimental: as §1, §2, §3, §4

Row | IC50 [1] | Human mCl [2] | Rat mCl [3] | Compound | Rat mCl ([3]; bis(trifluoroacetate))
1 | < 100 nM | – | – | CN(C)c1cccc(-c2nn(C)c(=O)c3c(-c4ccncc4)csc23)c1 [Example 119, 7-[3-(dimethylamino)phenyl]-5-methyl-3-(pyridin-4-yl)thieno[2,3-d]pyridazin-4(5H)-one bis(trifluoroacetate)] | –
2 | < 100 nM | – | – | Cn1nc(-c2ccncc2)c2scc(-c3cncnc3)c2c1=O [Example 6, 5-methyl-7-(pyridin-4-yl)-3-(pyrimidin-5-yl)thieno[2,3-d]pyridazin-4(5H)-one] | –
3 | 200 to 500 nM | – | – | Cn1nc(OC2Cc3ccccc3C2)c2scc(-c3ccncc3)c2c1=O [Example 60, 7-(2,3-dihydro-1H-inden-2-yloxy)-5-methyl-3-(pyridin-4-yl)thieno[2,3-d]pyridazin-4(5H)-one trifluoroacetate] | –
4 | 200 to 500 nM | – | – | Cn1nc(-c2ccc(Cl)cc2)c2scc(-c3ccncc3)c2c1=O [Example 110, 7-(4-chlorophenyl)-5-methyl-3-(pyridin-4-yl)thieno[2,3-d]pyridazin-4(5H)-one trifluoroacetate] | –
5 | < 100 nM | – | – | Cn1nc(-c2cnn(CC(F)(F)F)c2)c2scc(-c3ccncc3)c2c1=O [Example 100, 5-methyl-3-(pyridin-4-yl)-7-[1-(2,2,2-trifruoroethyl)-1H-pyrazol-4-yl]thieno[2,3-d]pyridazin-4(5H)-one bis(trifluoroacetate)] | –
6 | 200 to 500 nM | – | – | Cn1nc(OCc2ccc3c(c2)CNC3)c2scc(-c3ccncc3)c2c1=O [Example 126, 7-(2,3-dihydro-1H-isoindol-5-ylmethoxy)-5-methyl-3-(pyridin-4-yl)thieno[2,3-d]pyridazin-4(5H)-one bis(trifluoroacetate)] | –
7 | < 100 nM | – | – | Cc1cc(-c2nn(C)c(=O)c3c(-c4ccncc4)csc23)ccn1 [Example 120, 5-methyl-7-(2-methylpyridin-4-yl)-3-(pyridin-4-yl)thieno[2,3-d]pyridazin-4(5H)-one bis(trifluoroacetate)] | –
8 | – | ++ (++: <100 μl min^−1 mg^−1) | ++ (++: <100 μl min^−1 mg^−1) | Cn1nc(-c2ccncc2)c2scc(-c3ccc(C#N)cc3)c2c1=O.O=C(O)C(F)(F)F [Example 25, 4-[5-methyl-4-oxo-7-(pyridin-4-yl)-4,5-dihydrothieno[2,3-d]pyridazin-3-yl]benzonitrile trifluoroacetate] | –
9 | – | ++ (++: <100 μl min^−1 mg^−1) | ++ (++: <100 μl min^−1 mg^−1) | Cn1nc(OCC2CCNCC2)c2scc(-c3ccncc3)c2c1=O.O=C(O)C(F)(F)F [Example 125, 5-methyl-7-(piperidin-4-ylmethoxy)-3-(pyridin-4-yl)thieno[2,3-d]pyridazin-4(5H)-one bis(trifluoroacetate)] | –
10 | – | ++ (++: <100 μl min^−1 mg^−1) | + (+: 100-220 μl min^−1 mg^−1) | Cn1cc(-c2csc3c(-c4ccncc4)nn(C)c(=O)c23)cn1.O=C(O)C(F)(F)F [Example 37, 5-methyl-3-(1-methyl-1H-pyrazol-4-yl)-7-(pyridin-4-yl)thieno[2,3-d]pyridazin-4(5H)-one trifluoroacetate] | –
11 | – | ++ (++: <100 μl min^−1 mg^−1) | ++ (++: <100 μl min^−1 mg^−1) | Cn1nc(OCC2CCC(F)(F)CC2)c2scc(-c3ccncc3)c2c1=O [Example 66, 7-[(4,4-difluorocyclohexyl)methoxy]-5-methyl-3-(pyridin-4-yl)thieno[2,3-d]pyridazin-4(5H)-one] | –
12 | – | ++ (++: <100 μl min^−1 mg^−1) | ++ (++: <100 μl min^−1 mg^−1) | CN1CCN(c2nn(C)c(=O)c3c(-c4ccncc4)csc23)CC1 [Example 49, 5-methyl-7-(4-methylpiperazin-1-yl)-3-(pyridin-4-yl)thieno[2,3-d]pyridazin-4(5H)-one] | –
13 | – | + (+: 100-220 μl min^−1 mg^−1) | + (+: 100-220 μl min^−1 mg^−1) | Cn1nc(-c2ccncc2)c2scc(-c3ccc4c(c3)CCO4)c2c1=O.O=C(O)C(F)(F)F [Example 35, 3-(2,3-dihydro-1-benzofuran-5-yl)-5-methyl-7-(pyridin-4-yl)thieno[2,3-d]pyridazin-4(5H)-one trifluoroacetate] | –
14 | – | ++ (++: <100 μl min^−1 mg^−1) | ++ (++: <100 μl min^−1 mg^−1) | Cn1nc(-c2ccncc2)c2scc(N3CCN(C(=O)OC(C)(C)C)CC3)c2c1=O [Example 5, tert-butyl 4-[5-methyl-4-oxo-7-(pyridin-4-yl)-4,5-dihydrothieno[2,3-d]pyridazin-3-yl]piperazine-1-carboxylate] | –
15 | – | + (+: 100-220 μl min^−1 mg^−1) | ++ (++: <100 μl min^−1 mg^−1) | Cn1nc(-c2ccncc2)c2scc(-c3cnn(Cc4ccccc4)c3)c2c1=O.O=C(O)C(F)(F)F.O=C(O)C(F)(F)F [Example 41, 3-(1-benzyl-1H-pyrazol-4-yl)-5-methyl-7-(pyridin-4-yl)thieno[2,3-d]pyridazin-4(5H)-one bis(trifluoroacetate)] | –
16 | – | ++ (++: <100 μl min^−1 mg^−1) | ++ (++: <100 μl min^−1 mg^−1) | Cn1nc(-c2ccc(OC(F)(F)F)cc2)c2scc(-c3ccncc3)c2c1=O [Example 101, 5-methyl-3-(pyridin-4-yl)-7-[4-(trifluoromethoxy)phenyl]thieno[2,3-d]pyridazin-4(5H)-one] | –
17 | – | + (+: 100-220 μl min^−1 mg^−1) | + (+: 100-220 μl min^−1 mg^−1) | COc1cccc(-c2csc3c(-c4ccncc4)nn(C)c(=O)c23)c1.O=C(O)C(F)(F)F [Example 30, 3-(3-methoxyphenyl)-5-methyl-7-(pyridin-4-yl)thieno[2,3-d]pyridazin-4(5H)-one trifluoroacetate] | –
18 | – | ++ (++: <100 μl min^−1 mg^−1) | – | Cn1nc(-c2ccncc2)c2scc(-c3cccnc3)c2c1=O.O=C(O)C(F)(F)F [Example 15, 5-methyl-3-(pyridin-3-yl)-7-(pyridin-4-yl)thieno[2,3-d]pyridazin-4(5H)-one bis(trifluoroacetate)] | ∘ (∘ not avialable or >220 μl min^−1 mg^−1)
19 | – | ++ (++: <100 μl min^−1 mg^−1) | ++ (++: <100 μl min^−1 mg^−1) | Cn1nc(OCc2ccc3c(c2)CN(C(=O)OC(C)(C)C)C3)c2scc(-c3ccncc3)c2c1=O [Example 80, tert-butyl 5-({[5-methyl-4-oxo-3-(pyridin-4-yl)-4,5-dihydrothieno[2,3-d]pyridazin-7-yl]oxy}methyl)-1,3-dihydro-2H-isoindole-2-carboxylate] | –
20 | – | ++ (++: <100 μl min^−1 mg^−1) | ++ (++: <100 μl min^−1 mg^−1) | COc1ncc(-c2csc3c(-c4ccncc4)nn(C)c(=O)c23)cn1 [Example 10, 3-(2-methoxypyrimidin-5-yl)-5-methyl-7-(pyridin-4-yl)thieno[2,3-d]pyridazin-4(5H)-one] | –
21 | – | ++ (++: <100 μl min^−1 mg^−1) | ++ (++: <100 μl min^−1 mg^−1) | Cn1nc(-c2ccncc2)c2scc(-c3ccc(C(=O)NC4CC4)cc3)c2c1=O.O=C(O)C(F)(F)F [Example 40, N-cyclopropyl-4-[5-methyl-4-oxo-7-(pyridin-4-yl)-4,5-dihydrothieno[2,3-d]pyridazin-3-yl]benzamide trifluoroacetate] | –

Row | Compound | IC50 [1] | Human mCl [2] | Rat mCl [3] | Rat mCl ([3]; bis(trifluoroacetate))
22 | methyl 3-({[5-methyl-4-oxo-3-(pyridin-4-yl)-4,5-dihydrothieno[2,3-d]pyridazin-7-yl]oxy}methyl)benzoate trifluoroacetate [Example 72] | < 100 nM | – | – | –
23 | Cn1nc(-c2ccncc2)c2scc(-c3csc4ccccc34)c2c1=O.O=C(O)C(F)(F)F [Example 26, 3-(1-benzothiophen-3-yl)-5-methyl-7-(pyridin-4-yl)thieno[2,3-d]pyridazin-4(5H)-one trifluoroacetate] | – | + (+: 100-220 μl min^−1 mg^−1) | ∘ (∘ not avialable or >220 μl min^−1 mg^−1) | –
24 | Cn1nc(-c2ccncc2)c2scc(-c3cccc(-n4cccn4)c3)c2c1=O.O=C(O)C(F)(F)F.O=C(O)C(F)(F)F [Example 24, 5-methyl-3-[3-(1H-pyrazol-1-yl)phenyl]-7-(pyridin-4-yl)thieno[2,3-d]pyridazin-4(5H)-one bis(trifluoroacetate)] | – | ∘ (∘ not avialable or >220 μl min^−1 mg^−1) | + (+: 100-220 μl min^−1 mg^−1) | –
